Measured values reported in patent US7417156B2, “Orally active, antimalarial, anticancer, artemisinin-derived trioxane dimers” (Johns Hopkins University, priority 2002, dated 2008).
Like-named read-outs stand apart in the source and are kept apart here.

Columns and labels:
786-0 = assay: NCI 60 cell line panel screen (SRB); type: cell-based, human; conditions: for Log10LC50: LC50: PG=−50; for Log10GI50: Renal Cancer, 786-0
CAKI-1 = assay: NCI 60 cell line panel screen (SRB); type: cell-based, human; conditions: for Log10LC50: LC50: PG=−50
RXF 393 = assay: NCI 60 cell line panel screen (SRB); type: cell-based, human; conditions: for Log10LC50 / Log10TGI50: RXF 393 (Renal Cancer); for Log10LC50: LC50: PG=−50; for Log10TGI50: TGI: PG=0; for Log10GI50: Renal Cancer, RXF 393
[1] = test system: P. berghei NY malaria parasite; assay: Antimalarial efficacies in vivo in mice; conditions: for ED50: Plasmodium berghei, read-out: ED50
From the text: Neither overt toxicity nor behavioral modification was observed due to drug administration in any of these mouse experiments.

U251 = assay: NCI 60 cell line panel screen (SRB); type: cell-based, human; conditions: for Log10LC50 / Log10TGI50: U251 (CNS Cancer); for Log10LC50: LC50: PG=−50; for Log10TGI50: TGI: PG=0
SF-295 = assay: NCI 60 cell line panel screen (SRB); type: cell-based, human; conditions: for Log10GI50: CNS Cancer, SF-295; for Log10LC50 / Log10TGI50: SF-295 (CNS Cancer); for Log10LC50: LC50: PG=−50; for Log10TGI50: TGI: PG=0
[2] = Solubility in water at pH 7.4; type: physicochemical
KM12 = assay: NCI 60 cell line panel screen (SRB); type: cell-based, human; conditions: for Log10GI50: Colon Cancer, KM12; for Log10LC50 / Log10TGI50: KM12 (Colon Cancer); for Log10LC50: LC50: PG=−50; for Log10TGI50: TGI: PG=0
HOP-62 = assay: NCI 60 cell line panel screen (SRB); type: cell-based, human; conditions: for Log10LC50 / Log10TGI50: HOP-62 (Non-Small Cell Lung Cancer); for Log10LC50: LC50: PG=−50; for Log10TGI50: TGI: PG=0; for Log10GI50: Non-Small Cell Lung Cancer, HOP-62
HL-60(TB) = assay: NCI 60 cell line panel screen (SRB); type: cell-based, human; conditions: for Log10LC50: LC50: PG=−50; for Log10GI50: Leukemia, HL-60(TB)
SN12C = assay: NCI 60 cell line panel screen (SRB); type: cell-based, human
OVCAR-4 = assay: NCI 60 cell line panel screen (SRB); type: cell-based, human
COLO 205 = assay: NCI 60 cell line panel screen (SRB); type: cell-based, human
NCI-H226 = assay: NCI 60 cell line panel screen (SRB); type: cell-based, human
HCC-2998 = assay: NCI 60 cell line panel screen (SRB); type: cell-based, human
A498 = assay: NCI 60 cell line panel screen (SRB); type: cell-based, human
LOX IMVI = assay: NCI 60 cell line panel screen (SRB); type: cell-based, human
T-47D = assay: NCI 60 cell line panel screen (SRB); type: cell-based, human; conditions: T-47D (Breast Cancer)
UACC-62 = assay: NCI 60 cell line panel screen (SRB); type: cell-based, human
SW-620 = assay: NCI 60 cell line panel screen (SRB); type: cell-based, human
EKVX = assay: NCI 60 cell line panel screen (SRB); type: cell-based, human
MDA-N = assay: NCI 60 cell line panel screen (SRB); type: cell-based, human
DU-145 = assay: NCI 60 cell line panel screen (SRB); type: cell-based, human
SK-MEL-5 = assay: NCI 60 cell line panel screen (SRB); type: cell-based, human
SR = assay: NCI 60 cell line panel screen (SRB); type: cell-based, human

SMILES: C[C@@H]1CC[C@H]2[C@@H](C)C(CC(O)(COC(=O)CCC(=O)O)CC3OC4O[C@]5(C)CC[C@H]6[C@H](C)CC[C@@H]([C@H]3C)C46OO5)OC3O[C@]4(C)CCC1C32OO4 (stereo partly shown) [Compound 9, tertiary alcohol primary succinate ester]
- Log10LC50 (786-0; 786-0 (Renal Cancer)): >−4.30 log10M
- Log10GI50 (786-0): <−8.30
- Log10LC50 (CAKI-1; CAKI-1 (Renal Cancer)): >−4.30 log10M
- Log10LC50 (RXF 393): >−4.30 log10M
- Log10TGI50 (RXF 393): −4.45 log10M
- Log10GI50 (RXF 393): −7.67
- ED50 ([1]; route IV): 2.4 mg/kg
- ED50 ([1]; route PO): 4.8 mg/kg
- ED90 ([1]; route IV): 11.0 mg/kg × 4
- % Parasite Supression at 10 mg/kg ([1]; route IV): 83.4%
- ED90 ([1]; route PO): 34.0 mg/kg × 4
- % Parasite Supression at 10 mg/kg ([1]; route PO): 55.4%
- Log10LC50 (U251): >−4.30 log10M
- Log10TGI50 (U251): −4.75 log10M
- Log10GI50 (SF-295): <−8.30
- Log10LC50 (SF-295): −4.60 log10M
- Log10TGI50 (SF-295): <−8.30 log10M
- water solubility relative to artelinic acid [2]: ~30 times
- Log10GI50 (KM12): <−8.30
- Log10LC50 (KM12): −4.36 log10M
- Log10TGI50 (KM12): <−8.30 log10M
- Log10LC50 (HOP-62): >−4.30 log10M
- Log10TGI50 (HOP-62): >−4.30 log10M
- Log10GI50 (HOP-62): −5.69
- Log10LC50 (HL-60(TB); HL-60(TB) (Leukemia)): >−4.30 log10M
- Log10GI50 (HL-60(TB)): <−8.30

SMILES: CC1CCC2C(C)C(CC(CO)CC3OC4OC5(C)CCC6C(C)CCC(C3C)C46OO5)OC3OC4(C)CCC1C32OO4 (stereo not shown) [Compound 4, bis-trioxane primary alcohol]
- Log10LC50 (786-0; 786-0 (Renal Cancer)): −4.31 log10M
- Log10TGI50 (786-0; 786-0 (Renal Cancer), TGI: PG=0): −4.83 log10M
- Log10GI50 (786-0): −7.48
- Log10GI50 (SN12C; Renal Cancer, SN12C): −7.46
- Log10LC50 (SN12C; SN12C (Renal Cancer), LC50: PG=−50): −4.35 log10M
- Log10TGI50 (SN12C; SN12C (Renal Cancer), TGI: PG=0): −4.84 log10M
- Log10LC50 (OVCAR-4; OVCAR-4 (Ovarian Cancer), LC50: PG=−50): −4.16 log10M
- Log10TGI50 (OVCAR-4; OVCAR-4 (Ovarian Cancer), TGI: PG=0): −4.62 log10M
- Log10GI50 (OVCAR-4; Ovarian Cancer, OVCAR-4): −5.44
- Log10LC50 (COLO 205; COLO 205 (Colon Cancer), LC50: PG=−50): −4.50 log10M
- Log10TGI50 (COLO 205; COLO 205 (Colon Cancer), TGI: PG=0): −6.43 log10M
- Log10GI50 (COLO 205; Colon Cancer, COLO 205): <−8.00
- Log10LC50 (NCI-H226; NCI-H226 (Non-Small Cell Lung Cancer), LC50: PG=−50): >−4.00 log10M
- Log10TGI50 (NCI-H226; NCI-H226 (Non-Small Cell Lung Cancer), TGI: PG=0): −4.40 log10M
- Log10GI50 (NCI-H226; Non-Small Cell Lung Cancer, NCI-H226): −4.82
- Log10LC50 (CAKI-1; CAKI-1 (Renal Cancer)): −4.38 log10M
- Log10TGI50 (CAKI-1; CAKI-1 (Renal Cancer), TGI: PG=0): −4.84 log10M
- Log10GI50 (CAKI-1; Renal Cancer, CAKI-1): −7.05
- Log10GI50 (HCC-2998; Colon Cancer, HCC-2998): −7.45
- Log10LC50 (HCC-2998; HCC-2998 (Colon Cancer), LC50: PG=−50): −4.59 log10M
- Log10TGI50 (HCC-2998; HCC-2998 (Colon Cancer), TGI: PG=0): −5.39 log10M
- Log10LC50 (RXF 393): −4.01 log10M
- Log10TGI50 (RXF 393): −4.41 log10M
- Log10GI50 (RXF 393): −4.80
- Log10LC50 (A498; A498 (Renal Cancer), LC50: PG=−50): −4.50 log10M
- Log10TGI50 (A498; A498 (Renal Cancer), TGI: PG=0): −5.00 log10M
- Log10GI50 (A498; Renal Cancer, A498): −6.69
- Log10LC50 (LOX IMVI; LOX IMVI (Melanoma), LC50: PG=−50): >−4.00 log10M
- Log10TGI50 (LOX IMVI; LOX IMVI (Melanoma), TGI: PG=0): −4.45 log10M
- Log10GI50 (LOX IMVI; Melanoma, LOX IMVI): −7.26
- Log10LC50 (T-47D; LC50: PG=−50): −4.17 log10M
- Log10TGI50 (T-47D; TGI: PG=0): −4.73 log10M
- Log10GI50 (UACC-62; Melanoma, UACC-62): −6.86
- Log10LC50 (UACC-62; UACC-62 (Melanoma), LC50: PG=−50): −4.29 log10M
- Log10TGI50 (UACC-62; UACC-62 (Melanoma), TGI: PG=0): −4.74 log10M
- Log10GI50 (U251; CNS Cancer, U251): −7.27
- Log10LC50 (U251): >−4.00 log10M
- Log10TGI50 (U251): −4.47 log10M
- Log10GI50 (SW-620; Colon Cancer, SW-620): <−8.00
- Log10LC50 (SW-620; SW-620 (Colon Cancer), LC50: PG=−50): −4.44 log10M
- Log10TGI50 (SW-620; SW-620 (Colon Cancer), TGI: PG=0): −4.89 log10M
- Log10GI50 (SF-295): −5.59
- Log10LC50 (SF-295): −4.39 log10M
- Log10TGI50 (SF-295): −4.80 log10M
- Log10LC50 (EKVX; EKVX (Non-Small Cell Lung Cancer), LC50: PG=−50): −4.36 log10M
- Log10TGI50 (EKVX; EKVX (Non-Small Cell Lung Cancer), TGI: PG=0): −4.77 log10M
- Log10GI50 (EKVX; Non-Small Cell Lung Cancer, EKVX): −7.12
- Log10GI50 (MDA-N; Breast Cancer, MDA-N): −7.54
- Log10LC50 (MDA-N; MDA-N (Breast Cancer), LC50: PG=−50): −4.45 log10M
- Log10TGI50 (MDA-N; MDA-N (Breast Cancer), TGI: PG=0): −4.90 log10M
- Log10LC50 (DU-145; DU-145 (Prostate Cancer), LC50: PG=−50): −4.36 log10M
- Log10TGI50 (DU-145; DU-145 (Prostate Cancer), TGI: PG=0): −4.72 log10M
- Log10GI50 (DU-145; Prostate Cancer, DU-145): −6.24
- Log10GI50 (KM12): <−8.00
- Log10LC50 (KM12): −4.29 log10M
- Log10TGI50 (KM12): −4.79 log10M
- Log10LC50 (HOP-62): −4.20 log10M
- Log10TGI50 (HOP-62): −4.56 log10M
- Log10GI50 (HOP-62): −4.92
- Log10GI50 (SK-MEL-5; Melanoma, SK-MEL-5): −7.90
- Log10LC50 (SK-MEL-5; SK-MEL-5 (Melanoma), LC50: PG=−50): −4.53 log10M
- Log10TGI50 (SK-MEL-5; SK-MEL-5 (Melanoma), TGI: PG=0): −7.18 log10M
- Log10GI50 (SR; Leukemia, SR): <−8.00
- Log10LC50 (SR; SR (Leukemia), LC50: PG=−50): >−4.00 log10M
- Log10TGI50 (SR; SR (Leukemia), TGI: PG=0): −4.58 log10M
- Log10LC50 (HL-60(TB); HL-60(TB) (Leukemia)): −4.13 log10M
- Log10TGI50 (HL-60(TB); HL-60(TB) (Leukemia), TGI: PG=0): −4.88 log10M
- Log10GI50 (HL-60(TB)): −7.78
